Key:
[1] = test system: ovariectomized BALB/c mice; experiment: microCT cortical bone microstructure, midshaft femur; type: in vivo, mouse (BALB/cJRj, female); details: 28 days, OVX, n=8
Description: Eight animals were randomly assigned to each group.
All animals received intraperitoneal administration of calcein green (10 mg/kg) 10 days and 2 days before sacrifice. Animals were housed in social groups and maintained in a 12 h:12 h light/dark cycle. They had free access to water and food. At necropsy, blood was collected by intracardiac aspiration into EDTA-treated tubes. Blood samples were centrifuged at 13,000 g for 15 min, aliquoted and stored at -80°C until plasma levels of exendin-4 (#EK-070-94, Phoenix pharmaceuticals, Burlingame, CA) and calcitonin (NBP3-06734, Bio-Techne Ltd, Abingdon, UK) were measured according to the manufacturer’s protocol. Plasma levels of the bone remodeling markers C-terminal telopeptide of collagen type I (CTx-I – RatLaps, Immunodiagnostic Systems Ltd, Boldon, UK) and N-terminal propeptide of type I collagen (P1NP - Rat/mouse P1NP, Immunodiagnostic Systems Ltd) were measured according to the manufacturers’ recommendation. Right femurs were wrapped in saline-soaked gauze and frozen at -20°C until use. […]
MicroCT analyses were performed at the proximal metaphysis of the right tibia and at the mid-diaphysis of the right femur with a Bruker 1272 microtomograph operated at 70 kV, 140 μA, 1000 ms integration time and imaging in ethanol 70. […] The region analyzed (0.5 mm) was centered at the midpoint between the third trochanter and the distal growth plate. […]

[2] = test system: mouse bone marrow-derived mesenchymal stem cell (BMMSC) cultures; experiment: Bone marrow-derived mesenchymal stem cell osteogenic differentiation; type: cell-based, mouse (BALB/cJRj); details: 1 nM exendin-4, osteogenic medium, n = 5 independent experiments
Description: Femurs and tibias were isolated from 12-week-old female BALB/c mice (BALB/cJRj; Janvier Labs, Saint-Berthevin, France). Bones were rapidly dissected and cleared of soft tissue. The distal epiphyses were removed, and the marrow cavities were flushed with sterile PBS to collect bone marrow cells. Cells were suspended in growth medium composed of α-MEM supplemented with 10% fetal bovine serum, 100 U/mL penicillin-streptomycin, and 0.25 μL/mL Fungizone (Thermo Fisher Scientific), and seeded into 6-well plates at a density of 2.5 × 10^6 cells/well. Cultures were maintained at 37°C in a humidified incubator with 5% CO2. Cells remained undisturbed for 5 days to promote adherence. […]
On day 14, cells were washed with PBS and subjected to three freeze-thaw cycles. […] Enzymatic activity was measured using the fluorescent substrate 4-methylumbelliferyl phosphate (Sigma-Aldrich) as previously described ([38]).
On day 21, cells were fixed with 3.7% (w/v) formaldehyde in PBS for 10 min, rinsed with PBS, and stained with 1.5% (w/v) Alizarin Red S for 5 min. […] Bound dye was extracted using 10% acetic acid, neutralized with 10% ammonium hydroxide, and absorbance was measured at 550 nm using a spectrophotometer. […]

Substance: exendin-4 [Ex-4]
- cortical bone microstructure ([1]; icv Ex-4 70 pmol/day): unable to demonstrate significant changes in cortical bone microstructure
- cortical bone microstructure ([1]; s.c. Ex-4 ~700 pmol/day): did not alter cortical bone microstructure
- alkaline phosphatase (ALP) activity ([2]; day 14): did not result in any significant increase
- extracellular matrix mineralization (Alizarin Red S) ([2]; day 21): did not result in any significant increase
